Active and inactive are the calls of the source. The rule behind the calls is not given here.
What was measured:
[1] = tested on: Radical scavenging activity; assay: Antioxidant activity of the compound assessed as DPPH radical scavenging at 10 uM after 30 secs by spectrophotometry; assay type: functional
[2] = Selectivity ratio of IC50 for equine BuChE to IC50 for bovine AChE
H9c2 [3] = assay: Prevention of apoptosis in rat H9c2 cells assessed as reduction in fall of mitochondrial membrane potential at 100 nM after 1 hr; assay type: functional; parameters: scale not given: the % may be the effect or the level left
H9c2 [4] = assay: Prevention of apoptosis in rat H9c2 cells assessed as protection against oxidative stress-induced cytotoxicity at 100 nM […] by Alamar blue assay; assay type: functional
[5] = Cytotoxicity against rat H9c2 cells assessed as cell viability in absence of H2O2; assay type: cell-based; parameters: concentration or dose not given beside the values; conditions: read-out: Activity
Butyrylcholinesterase = Butyrylcholinesterase (Equus caballus, UniProt Q9N1N9); assay: Inhibition of equine BuChE after 120 mins by Ellman's method
Sequence of Butyrylcholinesterase (Q9N1N9 whole entry): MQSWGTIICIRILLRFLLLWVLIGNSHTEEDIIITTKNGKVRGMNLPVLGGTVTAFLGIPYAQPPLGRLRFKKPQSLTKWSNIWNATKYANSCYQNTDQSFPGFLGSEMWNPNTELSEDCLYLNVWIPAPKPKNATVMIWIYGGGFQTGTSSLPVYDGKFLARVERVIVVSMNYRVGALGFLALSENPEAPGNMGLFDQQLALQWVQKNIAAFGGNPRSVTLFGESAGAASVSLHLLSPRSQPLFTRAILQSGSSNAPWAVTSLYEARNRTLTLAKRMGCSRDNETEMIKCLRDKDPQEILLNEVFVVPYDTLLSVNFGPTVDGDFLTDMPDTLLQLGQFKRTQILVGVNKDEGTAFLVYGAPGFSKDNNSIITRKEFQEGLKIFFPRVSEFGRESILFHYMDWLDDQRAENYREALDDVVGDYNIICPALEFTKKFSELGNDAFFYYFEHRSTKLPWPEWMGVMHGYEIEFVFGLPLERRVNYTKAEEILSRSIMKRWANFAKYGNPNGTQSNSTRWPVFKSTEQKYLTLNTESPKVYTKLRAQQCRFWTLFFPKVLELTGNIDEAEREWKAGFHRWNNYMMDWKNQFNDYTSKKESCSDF

[6] = Antioxidant activity assessed as scavenging of glucose oxidase-generated H2O2 and hydroxyl radicals by chemiluminescence assay; assay type: functional
Acetylcholinesterase = molecular target: T1, Acetylcholinesterase (Bos taurus, UniProt P23795); assay: Inhibition of bovine AChE after 120 mins by Ellman's method
T1 sequence (P23795 whole entry): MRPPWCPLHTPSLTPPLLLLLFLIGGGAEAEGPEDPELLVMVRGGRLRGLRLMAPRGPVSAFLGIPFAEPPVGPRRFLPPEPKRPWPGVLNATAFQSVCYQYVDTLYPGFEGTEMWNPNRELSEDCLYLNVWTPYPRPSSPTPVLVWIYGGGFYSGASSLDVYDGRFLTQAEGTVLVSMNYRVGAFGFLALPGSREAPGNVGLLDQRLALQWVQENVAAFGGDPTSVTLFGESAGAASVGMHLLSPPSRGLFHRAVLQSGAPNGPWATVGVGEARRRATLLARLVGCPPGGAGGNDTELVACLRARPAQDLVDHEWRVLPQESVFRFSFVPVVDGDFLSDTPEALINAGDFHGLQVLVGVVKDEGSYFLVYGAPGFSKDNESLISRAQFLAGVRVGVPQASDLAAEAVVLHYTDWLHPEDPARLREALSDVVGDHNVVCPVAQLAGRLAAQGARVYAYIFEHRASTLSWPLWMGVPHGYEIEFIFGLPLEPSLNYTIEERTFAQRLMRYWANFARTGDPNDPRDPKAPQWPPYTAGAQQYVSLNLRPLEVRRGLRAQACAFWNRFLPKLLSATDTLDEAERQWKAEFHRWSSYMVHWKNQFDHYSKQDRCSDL

[7] = Antioxidant activity of the compound assessed as DHR radical scavenging activity at 10 uM by fluorescence assay; assay type: functional
[8] = Antioxidant activity assessed as scavenging of morpholino sydononimine based nitric oxide release by chemiluminescence assay; assay type: functional
Gallus gallus [9] = species: Gallus gallus; assay: Prevention of apoptosis in chick primary telencephalon neurons assessed as protection against serum deprivation-induced cytotoxicity at 1 to 10 uM by MTT assay; assay type: functional
Gallus gallus [10] = species: Gallus gallus; assay: Prevention of apoptosis in chick primary telencephalon neurons assessed as protection against serum deprivation-induced oxidative stress at 10 nM measured on day 8 by MTT assay; assay type: functional

Structure (SMILES) | Activity [1] [%] | Ratio IC50 [2] | Activity (H9c2 [3]) [%] | Activity (H9c2 [4]) | viability [5] [%] | IC50 (Butyrylcholinesterase) [µM] | IC50 [6] [µM] | IC50 (Acetylcholinesterase) [µM] | Activity [7] [%] | IC50 [8] [µM] | Activity (Gallus gallus [9]) | Activity (Gallus gallus [10])
CCN(C)C(=O)Oc1ccc2c(c1)NCC2CCC(=O)OC (stereo not given) | 31.7 | 0.07 | – | – | – | – | – | – | – | – | – | –
CC(=O)N[C@@H](CS)C(=O)O [ACETYLCYSTEINE] | – | – | 20 | 25.2% | – | – | – | – | – | – | – | –
CCN(C)C(=O)Oc1ccc2c(c1)NCC2CCC(=O)O.Cl (stereo not given) | – | 0.06 | – | 56.1% | 102 | 10 | 1.14 | 175 | – | – | – | –
CCN(C)C(=O)Oc1cccc2c1NCC2CCC(=O)OC (stereo not given) | – | 0.00012 | – | – | – | 0.008 | – | 61.6 | – | – | – | –
COc1ccc(N(C)C(=O)Oc2cccc3c2C(CCC(=O)O)CN3)cc1 (stereo not given) | – | 11 | – | inactive | 95.5 | 417 | 4.33 | 37.8 | – | – | – | –
O=C(O)CCC1CNc2cccc(O)c21 (stereo not given) | – | – | – | – | – | – | 1.44 | – | 19.1 | – | – | –
COC(=O)CCC1CNc2cc(O)ccc21.Cl (stereo not given) | 28.2 | – | 87 | 50% | – | – | 1.34 | – | 52.1 | 1.38 | – | –
CCN(C)C(=O)Oc1ccc2c(c1)NCC2CCC(=O)OC.Cl (stereo not given) | – | – | 77 | 58.5% | 100 | 3.9 | 1.45 | 55.2 | – | 2.36 | – | –
CCN(C)C(=O)Oc1ccc2c(c1)N(CCC(=O)OC)CC2 | – | – | – | – | – | 6.8 | 0.22 | – | – | 2.18 | – | –
CCCCN(C)C(=O)Oc1ccc2c(c1)NCC2CCC(=O)OC.Cl (stereo not given) | – | 6.5 | 54 | 40.1% | 87.8 | 404 | 24.1 | 62.3 | – | – | – | –
COC(=O)CCC1CNc2cccc(OC(=O)N(C)c3ccc(OC)cc3)c21.Cl (stereo not given) | 30.4 | 3.8 | – | 43.1% | 84.7 | 4.6 | 19 | 1.2 | – | 3.18 | – | –
CCN(C)C(=O)Oc1cccc2c1CCN2CCC(=O)OC | 27.8 | – | – | – | – | 0.7 | 0.3 | – | – | 8.49 | – | –
COC(=O)CCC1CN(C)c2cc(OC(=O)N(C)c3ccc(OC)cc3)ccc21.Cl (stereo not given) | – | – | – | 33.3% | 106 | 372 | 2.24 | 17.4 | – | – | – | –
CCCCN(C)C(=O)Oc1cccc2c1C(CCC(=O)OC)CN2C.Cl (stereo not given) | – | 2.89 | – | 31.5% | 93.9 | 197 | 6.84 | – | – | – | – | –
CCN(C)C(=O)Oc1cccc2c1C(CCC(N)=O)CN2.Cl (stereo not given) | – | 0.14 | – | 55.2% | 96 | 8.5 | 2.39 | 62 | – | – | – | –
CCN(C)C(=O)Oc1cccc2[nH]cc(CCC(=O)OC)c12 | – | 0.48 | – | – | – | 9.5 | – | 19.6 | – | – | – | –
COC(=O)CCC1CN(C)c2cccc(O)c21 (stereo not given) | – | – | – | – | – | – | 0.45 | – | 15.4 | – | – | –
COc1ccc(N(C)C(=O)Oc2cccc3c2C(CCC(=O)O)CN3C)cc1 (stereo not given) | – | > 4.8 | – | inactive | 101 | > 600 | 10.2 | 125 | – | – | – | –
O=c1c(O)c(-c2ccc(O)c(O)c2)oc2cc(O)cc(O)c12 [QUERCETIN] | 19.2 | – | – | 45.1% | – | – | 0.06 | – | 33.6 | 0.61 | – | –

Structure (SMILES) | Activity [1] [%] | Ratio IC50 [2] | Activity (H9c2 [3]) [%] | Activity (H9c2 [4]) | viability [5] [%] | IC50 (Butyrylcholinesterase) [µM] | IC50 [6] [µM] | IC50 (Acetylcholinesterase) [µM] | Activity [7] [%] | IC50 [8] [µM] | Activity (Gallus gallus [9]) | Activity (Gallus gallus [10])
O=C(O)c1cc(O)c(O)c(O)c1 | 31.4 | – | – | – | – | – | – | – | – | – | – | –
CCCCN(C)C(=O)Oc1ccc2c(c1)N(C)CC2CCC(=O)OC (stereo not given) | – | 0.55 | – | – | – | 66.8 | 6.27 | 122 | – | – | – | –
COC(=O)CCC1CNc2cc(OC(=O)N(C)c3ccc(OC)cc3)ccc21.Cl (stereo not given) | – | 1.4 | – | 43.8% | – | 54 | 3.41 | – | – | – | – | –
CCN(C)C(=O)Oc1cccc([C@H](C)N(C)C)c1 [RIVASTIGMINE] | – | – | – | – | – | – | – | 0.62 | – | – | – | –
CCN(C)C(=O)Oc1cccc2c1C(CCN)CN2 (stereo not given) | 36.3 | 0.5 | – | – | – | 0.2 | 0.07 | – | – | 2.13 | – | –
CCN(C)C(=O)Oc1cccc2c1C(CCC(=O)O)CN2 (stereo not given) | – | 0.016 | – | inactive | 93.4 | 0.3 | 1.59 | 19 | – | – | – | –
Cl.Oc1cccc2c1CCN2 | – | – | – | 38% | – | – | 1.15 | – | – | – | Active | Active
O=C(O)CCC1CNc2cc(O)ccc21 (stereo not given) | – | – | – | inactive | – | – | 2.34 | – | 41.9 | 1.34 | – | –
CCCCN(C)C(=O)Oc1ccc2c(CCC(=O)OC)c[nH]c2c1 | – | – | 56 | 28.8% | – | – | – | – | – | – | – | –
CCN(C)C(=O)Oc1cccc2c1C(CCC(=O)OC)CN2C (stereo not given) | – | 0.11 | – | inactive | 97.3 | 6.8 | 3.13 | 58.7 | – | – | – | –
CCN(C)C(=O)Oc1ccc2c(c1)N(C)CC2 | – | 0.14 | – | – | – | 58.7 | 1.15 | 418 | – | – | – | –
C#CCN[C@@H]1CCc2ccc(OC(=O)N(C)CC)cc21 [LADOSTIGIL] | – | 0.06 | 32 | 58.5% | – | 0.48 | – | 30.3 | – | – | – | –
CCOC(=O)CCC1CNc2cccc(OC(=O)N(C)CC)c21 (stereo not given) | – | – | – | – | – | 0.56 | – | 40.2 | – | – | – | –
CCN(C)C(=O)Oc1cccc2c1c(CCC(=O)OC)cn2C | – | – | – | – | – | – | – | 180 | – | – | – | –
COC(=O)CCc1c[nH]c2cc(OC(=O)N(C)c3ccc(OC)cc3)ccc12 | – | – | 48.2 | 43.1% | – | – | – | > 600 | – | – | – | –
COC(=O)CCC1CN(C)c2cccc(OC(=O)N(C)c3ccc(OC)cc3)c21 (stereo not given) | – | > 2.4 | – | inactive | 107 | > 600 | 15.3 | 246 | – | – | – | –
CN1CC(CCC(=O)O)c2ccc(O)cc21 (stereo not given) | – | – | – | – | – | – | 0.84 | – | 66.3 | 3.25 | – | –
CN(C)C(=O)Oc1cccc2c1CCN2.Cl | – | 1.08 | – | 46.8% | – | 1.3 | 0.77 | 1.2 | – | – | – | –
CCN(C)C(=O)Oc1cccc2c1C(CCC(=O)OC)CN2.Cl (stereo not given) | – | – | – | 73% | 99.9 | 0.3 | 1.46 | 7.4 | – | 4.55 | – | –
